Here are results for 1 compound from paper PMC9964680, “Novel TDP1 Inhibitors: Disubstituted Thiazolidine-2,4-Diones Containing Monoterpene Moieties” (International Journal of Molecular Sciences, 2023).

SMILES strings stand for the structures.

Data set [1] addresses T1, Human recombinant TDP1 (Homo sapiens, UniProt Q9NUW8).
T1 construct: made in house
Kind of data set: Real-time oligonucleotide biosensor assay of TDP1 activity. It is filed as biochemical. The following applies: 1.5 nM TDP1, 50 nM biosensor, 26 °C, at least three experiments; read-out: TDP1 inhibitory activity IC50. How it is done: The inhibiting activity of the compounds against TDP1 was investigated using a real-time oligonucleotide biosensor assay.
The biosensor (5′-[FAM] AAC GTC AGGGTC TTC C [BHQ]-3′) was synthesized in the Laboratory of Nucleic Acid Chemistry at the Institute of Chemical Biology and Fundamental Medicine (Novosibirsk, Russia) and was used for TDP1 enzyme activity real-time fluorescence detection. The reaction mixture (200 µL) contained a TDP1 reaction buffer (50 mM Tris-HCl, pH 8.0, 50 mM NaCl, and 7 mM β-mercaptoethanol), 50 nM oligonucleotide, varied concentrations of the tested compounds, and purified TDP1 in a final concentration of 1.5 nM. The recombinant TDP1 was purified to homogeneity by chromatography on Ni-chelating resin and phosphocellulose P11, as described, using plasmid pET 16B-TDP1, kindly provided by Dr. K.W. Caldecott (University of Sussex, United Kingdom).
The reaction mixtures were incubated at a constant temperature of 26 °C in a POLARstar OPTIMA fluorimeter (BMG LABTECH, GmbH, Ortenberg, Germany). Fluorescence intensity was measured (Ex485/Em520 nm) every 1 min for 10 min. The average values of the half maximal inhibitory concentration (IC50) were determined using a six-point concentration response curve and calculated using MARS Data Analysis 2.0 (BMG LABTECH). The 50% inhibitory concentration (IC50) was defined as the concentration of the compound that inhibited 50% of the enzyme activity, when compared to the untreated controls. At least three independent experiments were carried out to obtain the IC50 values.

In data set [2] the test system is MRC-5 cells. Kind of data set: Effect of compounds on topotecan cytotoxicity, MRC-5 (EZ4U). The following applies: MRC-5, 10 μM compound, topotecan 1 to 10 μM. It is filed as cell-based, human. How it is done: According the EZ4U test data the thiazolidine-2,4-diones were shown not to enhance the cytotoxic effect of topotecan at 10 μM (Figure 2C,D). […] It can be speculated that the decisive factor is the use of the thiazolidine-2,4-dione fragment as a central molecular scaffold, which is a pharmacophore for many targets. In particular, thiazolidine-2,4-diones are well-known for their antidiabetic, antitumor [20], and anti-inflammatory activities. Such promiscuity can lead to binding to a number of proteins/enzymes in cells other than TDP1.
Human colon adenocarcinoma HCT-116 and human lung fibroblast MRC-5 cell lines were provided by the Cell Culture Bank of the State Research Center for Virology and Biotechnology Vector, Novosibirsk, Russia. Cells were cultured in DMEM medium (Invitrogen) supplemented with 10% fetal bovine serum (FBS) (Invitrogen), penicillin (100 units/mL), and streptomycin (100 µg/mL) at 37 °C and 5% CO2 in a humid atmosphere. After the formation of a 30–50% monolayer, the tested compounds were added to the medium. Because the compounds are soluble in DMSO, we minimized the DMSO content in the culture medium. The volume of the added reagents was 1/100 of the total volume of the culture medium, and the amount of DMSO was 1% of the final volume. Control cells were grown in the presence of 1% DMSO. […]

T1 sequence (Q9NUW8 whole entry): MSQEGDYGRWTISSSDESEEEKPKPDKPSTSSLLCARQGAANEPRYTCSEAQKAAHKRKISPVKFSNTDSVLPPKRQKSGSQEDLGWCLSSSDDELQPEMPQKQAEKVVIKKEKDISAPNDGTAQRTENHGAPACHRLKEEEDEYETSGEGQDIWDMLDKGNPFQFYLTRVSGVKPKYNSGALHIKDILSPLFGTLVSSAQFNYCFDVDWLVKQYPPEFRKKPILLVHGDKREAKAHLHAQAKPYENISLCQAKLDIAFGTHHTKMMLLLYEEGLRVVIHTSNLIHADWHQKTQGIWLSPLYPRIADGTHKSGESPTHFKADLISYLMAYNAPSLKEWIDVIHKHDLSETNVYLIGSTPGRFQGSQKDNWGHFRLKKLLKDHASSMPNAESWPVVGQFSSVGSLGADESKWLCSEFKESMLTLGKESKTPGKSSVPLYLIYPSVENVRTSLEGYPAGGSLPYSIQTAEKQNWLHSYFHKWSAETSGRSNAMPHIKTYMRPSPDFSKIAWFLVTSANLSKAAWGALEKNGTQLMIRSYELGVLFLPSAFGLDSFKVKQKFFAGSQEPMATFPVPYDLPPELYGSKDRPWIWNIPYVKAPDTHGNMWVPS

For the compound `CC1(C)[C@H]2CC=C(CCN3C(=O)S/C(=C\c4ccc(Br)s4)C3=O)[C@@H]1C2` [Compound 21b, (Z)-5-((5-bromothiophen-2-yl)methylene)-3-(2-((1R,5S)-6,6-dimethylbicyclo[3.1.1]hept-2-en-2-yl)ethyl)thiazolidine-2,4-dione], in data set [1], the IC50 stood at 2500 ± 400 nM. For the same compound, the “effect on the cytotoxic effect of topotecan” value in data set [2] was “protects MRC-5 cells”.

What is called IC50 is the midpoint of a concentration-inhibition curve.
